From PubChem BioAssay (NCI)
Values joined by “and” are separate entries in the source; they are usually repeats but may differ in a detail not shown here. Equal entries are not always repeated.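 Where inhibition never reached the appropriate level, the endpoint shown equals the highest concentration tested. Otherwise, values were interpolated linearly from a five-concentration, 48-hour dose response in 96-well plates. At the GI50, growth is halved. TGI: total growth inhibition.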

How the values were obtained:
Assay in all cases: DTP human tumour cell line panel, 48 h
A549 NSCLC = test system: A549 NSCLC
MCF7 breast = test system: MCF7 breast
SNB-19 CNS = test system: SNB-19 CNS
SF-295 CNS = test system: SF-295 CNS
RPMI-8226 leukemia = test system: RPMI-8226 leukemia
K-562 leukemia = test system: K-562 leukemia
KM12 colon = test system: KM12 colon
OVCAR-5 ovarian = test system: OVCAR-5 ovarian
IGROV1 ovarian = test system: IGROV1 ovarian
SNB-75 CNS = test system: SNB-75 CNS

Row | Compound | GI50 (A549 NSCLC) | TGI (A549 NSCLC) | GI50 (MCF7 breast) | TGI (MCF7 breast) | GI50 (SNB-19 CNS) | TGI (SNB-19 CNS) | GI50 (SF-295 CNS) | TGI (SF-295 CNS) | GI50 (RPMI-8226 leukemia) | TGI (RPMI-8226 leukemia) | GI50 (K-562 leukemia) | TGI (K-562 leukemia) | GI50 (KM12 colon) | TGI (KM12 colon) | GI50 (OVCAR-5 ovarian) | TGI (OVCAR-5 ovarian) | GI50 (IGROV1 ovarian) | TGI (IGROV1 ovarian) | GI50 (SNB-75 CNS) | TGI (SNB-75 CNS)
1 | CCCS(=O)(=O)Nc1ccc(F)c(C(=O)c2c[nH]c3ncc(-c4ccc(Cl)cc4)cc23)c1F | 3.46 µM and 6.38 µM | 25 µM and > 10 µM | 5.24 µM and 8.84 µM | 20.9 µM and > 10 µM | 6.56 µM and > 10 µM | 29.6 µM and > 10 µM | 2.62 µM and 3.17 µM | 11.5 µM and > 10 µM | 3.9 µM and 6.36 µM | 37.4 µM and > 10 µM | 4.32 µM and > 8.72 µM | 19.6 µM and > 10 µM | 4.17 µM and 6.02 µM | 16.8 µM and > 10 µM | 10.2 µM and > 9.13 µM | 30 µM and > 10 µM | 3.52 µM and 3.63 µM | 14.4 µM and > 10 µM | 2.48 µM and 2.38 µM | 16.6 µM and > 10 µM
2 | COc1ccc(N2CCN(C(=O)c3ccccc3Nc3ccnc(C(F)(F)F)c3)CC2)cc1 | 61.5 µM | > 100 µM | 36.4 µM | > 100 µM | 78.3 µM | > 100 µM | 40.5 µM | > 100 µM | 9.48 µM | > 100 µM | 59.3 µM | > 100 µM | 76.9 µM | > 100 µM | > 100 µM | > 100 µM | 13.7 µM | 93.6 µM | 50.5 µM | > 100 µM
3 | O=c1[nH]cc(CS(=O)(=O)Cc2c[nH]c(=O)[nH]c2=O)c(=O)[nH]1 | – | > 100 µM | – | > 100 µM | – | > 100 µM | – | > 100 µM | – | > 100 µM | – | > 100 µM | – | > 100 µM | – | > 100 µM | – | > 100 µM | – | > 100 µM
4 | COc1ccc2c(c1)CCC1C2CC[C@@]2(C)C1CC[C@@]2(O)CNC(=O)/C=C/c1ccc(O)c(OC)c1 (stereo partly specified) | 22.3 µM | > 100 µM | 7.41 µM | > 100 µM | 27.8 µM | > 100 µM | 28.4 µM | > 100 µM | 6.47 µM | 53.9 µM | 12.3 µM | > 100 µM | 4.77 µM | > 100 µM | 45.5 µM | > 100 µM | 4.66 µM | > 100 µM | 26.6 µM | > 100 µM
5 | CN(C)c1ccc(/C=C2\C[C@H]3[C@@H]4CC=C5C[C@@H](N6CCCC6)CC[C@]5(C)[C@H]4CC[C@]3(C)[C@H]2O)cc1 | 3.79 µM | 4.41 µM and 15.3 µM | – | 12.5 µM | 2.41 µM | 6.94 µM and 9.08 µM | 8.18 µM | 2.99 µM and 23.1 µM | 3.1 µM | – | 2.36 µM | – | 5.48 µM | 10.7 µM and 50.9 µM | 14.1 µM | 13 µM and 57.2 µM | 3.92 µM | 2 µM and 8.53 µM | 3.4 µM | 3.01 µM and 14.9 µM
6 | S=c1nc[nH]c2c1ncn2Cc1ccco1 | – | > 100 µM | – | > 100 µM | – | > 100 µM | – | > 100 µM | – | > 100 µM | – | > 100 µM | – | > 100 µM | – | > 100 µM | – | > 100 µM | – | > 100 µM
7 | C/C1=C\[C@H](C)C[C@H](C)OC(=O)C[C@H](c2ccc(O)cc2)NC(=O)[C@@H](Cc2c(Br)[nH]c3ccccc23)N(C)C(=O)[C@H](C)NC(=O)[C@@H](C)C1 | 0.0318 µM | – | 0.208 µM | > 100 µM | 0.0232 µM | 0.0568 µM | 0.0349 µM | 0.699 µM and 0.18 µM | < 0.0176 µM | – | 0.229 µM | > 49.8 µM | – | 39.8 µM | 0.261 µM | > 20.3 µM | 0.023 µM | 0.265 µM and 0.0602 µM | 0.0168 µM | 0.175 µM and 0.0335 µM
8 | CN1/C(=C\C(I)C(I)C2=[N+](C)c3ccccc3C2(C)C)C(C)(C)c2ccccc21 (stereo unspecified) | 0.283 µM | 18.3 µM | 0.485 µM | 19.2 µM | 0.291 µM | 40.3 µM | 0.192 µM | 2.48 µM | 0.057 µM | 2.67 µM | 0.202 µM | 14.6 µM | 0.33 µM | 11.8 µM | 1.25 µM | > 70.5 µM | 0.464 µM | 42.5 µM | 0.416 µM | 9.77 µM
9 | C#CCN1C(=O)/C(=c2\sc3n(c2=O)C2C(NN=3)N(CC)C(=O)N2CC)c2ccccc21 (stereo unspecified) | 0.968 µM | > 100 µM | 0.377 µM | > 100 µM | 0.811 µM | > 100 µM | 0.529 µM | 8.83 µM | 0.375 µM | – | 0.342 µM | > 100 µM | 0.46 µM | > 100 µM | 1.21 µM | > 100 µM | 0.589 µM | > 91.1 µM | 0.25 µM | 0.997 µM
10 | COC(=O)c1c[nH]c(=O)[nH]c1=O | – | > 100 µM | – | > 100 µM | – | > 100 µM | – | > 100 µM | – | > 100 µM | – | > 100 µM | – | > 100 µM | – | > 100 µM | – | > 100 µM | – | > 100 µM
11 | COc1ccc(OC)c(-c2nc3sccn3c2/C=C2/C(=O)Nc3ccc(Cl)cc32)c1 | 38.9 µM | > 100 µM | 27.2 µM | 85 µM | 33.6 µM | > 100 µM | 19.4 µM | 51.5 µM | 26.9 µM | 94.8 µM | 29.9 µM | > 100 µM | 35.8 µM | > 100 µM | 30 µM | > 100 µM | 33.5 µM | > 100 µM | 19.7 µM | 48.6 µM
12 | COc1ccc(-c2nn(-c3cccc(Cl)c3)cc2C=C(C#N)C#N)cc1 | – | – | 2.35 µM | 7.72 µM | 2.63 µM | > 100 µM | 2.31 µM | 5.31 µM | 2.3 µM | 7.1 µM | 2.01 µM | 10.4 µM | 2.83 µM | 8.86 µM | 3.68 µM | 48.4 µM | 2.85 µM | 6.29 µM | 1.81 µM | 4.51 µM
13 | C(=N\Nc1nnc2c(n1)[nH]c1ccccc12)/c1cccnc1 | – | > 100 µM | – | > 100 µM | – | > 100 µM | – | > 100 µM | – | > 100 µM | – | > 100 µM | – | > 100 µM | – | > 100 µM | – | > 100 µM | – | > 100 µM
14 | O=C(c1ccccc1Nc1ccnc(C(F)(F)F)c1)N1CCN(c2cccc(Cl)c2)CC1 | 21.2 µM | > 100 µM | 18 µM | 80 µM | 26.1 µM | > 100 µM | 16.5 µM | 65.6 µM | 6.3 µM | 48 µM | 19.2 µM | > 100 µM | 25.7 µM | > 80.2 µM | 27.9 µM | > 86.4 µM | 5.53 µM | 24 µM | 26 µM | > 92.2 µM
